Laboratory results as given in patent publication US20200069691A1, “HETEROCYCLIC COMPOUNDS AS HIV PROTEASE INHIBITORS” (Merck Sharp & Dohme Corp., priority 2016, published 2020).

Target: T1, wild-type HIV-1 protease (Human immunodeficiency virus type 1 group M subtype B, UniProt P04585)
T1 construct: Escherichia coli expressed wild-type HIV-1 protease protein
Assay: Assay for Inhibition of Microbial Expressed HIV Protease (peptide substrate cleavage, LC-MS/MS readout)
Format: biochemical
Settings: E. coli expressed wild-type HIV-1 protease, mean of at least two independent experiments, read-out: HIV Pr Enzyme HIV1 PR IC50
Procedure, shortened: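 E. coli-expressed wild-type HIV-1 protease ([…]) was preincubated with inhibitor 30 min at room temperature in pH 5.5 acetate buffer (100 mM NaCl, 0.1% BSA). Then 400 μM octapeptide substrate was added and reacted 1 h at 30 °C; inhibition came from LC-MS/MS product peak areas, mean of ≥2 experiments.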

## N=C1N[C@](CCCC(F)(F)F)(c2ccc(F)cc2)C(=O)N1Cc1ccc(C(F)(F)F)c(C(=O)N2CCn3cnnc3C2)c1 [Compound 98, (5R)-3-[3-(5,6-dihydro[1,2,4]triazolo[4,3-a]pyrazin-7(8H)-ylcarbonyl)-4-(trifluoromethyl)benzyl]-5-(4-fluorophenyl)-2-imino-5-(4,4,4-trifluorobutyl)imidazolidin-4-one]
  IC50: 20.7 nM

## COC(=O)N1CCN(C(=O)c2cccc(CN3C(=N)NC(c4ccc(F)cc4)(c4ccc(F)cc4)C3=O)c2)CC1 [Compound 305, methyl 4-[(3-{[4,4-bis(4-fluorophenyl)-2-imino-5-oxoimidazolidin-1-yl]methyl}phenyl)carbonyl] piperazine-1-carboxylate]
  IC50: 64.1 nM

## N=C1NC(c2ccccc2)(c2ccccc2)C(=O)N1Cc1cc(C(=O)N2Cc3cncnc3C2)cs1 [Compound 408, 3-{[4-(5,7-dihydro-6H-pyrrolo[3,4-d]pyrimidin-6-ylcarbonyl)thiophen-2-yl]methyl}-2-imino-5,5-diphenylimidazolidin-4-one]
  IC50: 80.5 nM

## CNc1ncc2c(n1)CN(C(=O)c1cc(CN3C(=N)N[C@](CCCC(F)(F)F)(c4ccc(F)cc4)C3=O)ccc1C(F)(F)F)C2 [Compound 68, (5R)-5-(4-fluorophenyl)-2-imino-3-[3-{[2-(methylamino)-5,7-dihydro-6H-pyrrolo[3,4-d]pyrimidin-6-yl]carbonyl}-4-(trifluoromethyl)-benzyl]-5-(4,4,4-trifluorobutyl)-imidazolidin-4-one]
  IC50: 8.3 nM

## N=C1N[C@](CCCC(F)(F)F)(c2ccc(F)cc2)C(=O)N1Cc1ccc(C(F)(F)F)c(C(=O)N2Cc3cnc(C(F)(F)F)nc3C2)c1 [Compound 73, (5R)-5-(4-fluorophenyl)-2-imino-5-(4,4,4-trifluorobutyl)-3-[4-(trifluoromethyl)-3-{[2-(trifluoro-methyl)-5,7-dihydro-6H-pyrrolo-[3,4-d]pyrimidin-6-yl]carbonyl}-benzyl]imidazolidin-4-one]
  IC50: 9.29 nM

## CC(=O)N1CCN(C(=O)c2cc(CN3C(=N)N[C@](CCCC(F)(F)F)(c4ccc(F)cc4)C3=O)ccc2C(F)(F)F)CC1 [Compound 109, (5R)-3-{3-[(4-acetylpiperazin-1-yl)carbonyl]-4-(trifluoromethyl)-benzyl}-5-(4-fluorophenyl)-2-imino-5-(4,4,4-trifluorobutyl)-imidazolidin-4-one]
  IC50: 26.5 nM

## CC(C)CC1(c2ccccc2)NC(=N)N(Cc2cc(C(=O)N3Cc4nccnc4C3)ccn2)C1=O (stereo not shown) [Compound 403, 3-{[4-(5,7-dihydro-6H-pyrrolo[3,4-b]pyrazin-6-ylcarbonyl)pyridin-2-yl]methyl}-2-imino-5-(2-methylpropyl)-5-phenylimidazolidin-4-one]
  IC50: 54.3 nM

## Cc1ncc2c(n1)CN(C(=O)c1cccc(CN3C(=N)NC(c4ccc(F)cc4)(c4ccc(F)cc4)C3=O)c1)C2 [Compound 254, 5,5-bis(4-fluorophenyl)-2-imino-3-{3-[(2-methyl-5,7-dihydro-6H-pyrrolo[3,4-d]pyrimidin-6-yl)carbonyl]benzyl} imidazolidin-4-one]
  IC50: 20.2 nM

## N=C1N[C@](CCCC(F)(F)F)(c2ccc(F)cc2)C(=O)N1Cc1ccc(C(F)(F)F)c(C(=O)N2CCN(c3cncnc3)CC2)c1 [Compound 88, (5R)-5-(4-fluorophenyl)-2-imino-3-{3-[(4-pyrimidin-5-ylpiperazin-1-yl)carbonyl]-4-(trifluoromethyl)-benzyl}-5-(4,4,4-trifluorobutyl)-imidazolidin-4-one]
  IC50: 15.2 nM

## CC(C)CC[C@]1(c2ccccc2)NC(=N)N([C@H](C)c2ccc(C(F)(F)F)c(C(=O)N3Cc4nccnc4C3)c2)C1=O [Compound 141, (5R)-3-{(1R)-1-[3-(5,7-dihydro-6H-pyrrolo[3,4-b]pyrazin-6-ylcarbonyl)-4-(trifluoromethyl)phenyl]ethyl}-2-imino-5-(3-methylbutyl)-5-phenylimidazolidin-4-one]
  IC50: 3.04 nM

## N=C1N[C@](CCCC(F)(F)F)(c2ccc(F)cc2)C(=O)N1Cc1ccc(C(F)(F)F)c(C(=O)N2Cc3cnc(-c4cccc5[nH]ncc45)nc3C2)c1 [Compound 22, (5R)-5-(4-fluorophenyl)-2-imino-3-[3-{[2-(1H-indazol-4-yl)-5,7-dihydro-6H-pyirolo[3,4-d]pyrimidin-6-yl]carbonyl}-4-(trifluoromethyl)benzyl]-5-(4,4,4-trifluorobutyl)imidazolidin-4-one]
  IC50: 2.32 nM

## CC1(C)CCN(C(=O)c2cc(CN3C(=N)NC(c4ccc(F)cc4)(c4ccc(F)cc4)C3=O)ccc2C(F)(F)F)C1 [Compound 181, 3-{3-[(3,3-dimethylpyrrolidin-1-yl)carbonyl]-4-(trifluoromethyl)benzyl}-5,5-bis(4-fluorophenyl)-2-iminoimidazolidin-4-one]
  IC50: 89.8 nM

## CC(C)CCC1(c2ccccc2)NC(=N)N(Cc2ccc(C(F)(F)F)c(C(=O)N3CCCC3)c2)C1=O (stereo not shown) [Compound 170, 2-imino-5-(3-methylbutyl)-5-phenyl-3-[3-(pyrrolidin-1-ylcarbonyl)-4-(trifluoromethyl)benzyl] imidazolidin-4-one]
  IC50: 40.3 nM

## N=C1NC(c2ccccc2)(c2ccccc2)C(=O)N1Cc1cccc(C(=O)N2CCn3c(Cc4ccccc4)cnc3C2)c1 [Compound 337, 3-{3-[(3-benzyl-5,6-dihydroimidazo [1,2-a]pyrazin-7(8H)-yl)carbonyl]benzyl}-2-imino-5,5-diphenylimidazolidin-4-one]
  IC50: 72 nM

## N=C1NC(c2ccc(F)cc2)(c2ccc(F)cc2)C(=O)N1Cc1cccc(C(=O)N2CCC(n3c(=O)[nH]c4ccc(F)nc43)CC2)c1 [Compound 276, 3-{1-[(3-{[4,4-bis(4-fluorophenyl)-2-imino-5-oxoimidazolidin-1-yl]methyl}phenyl)carbonyl]piperidin-4-yl}-5-fluoro-1,3-dihydro-2H-imidazo[4,5-b]pyridin-2-one]
  IC50: 29.6 nM

## Cc1nonc1N1CCN(C(=O)c2cc(CN3C(=N)N[C@](CCCC(F)(F)F)(c4ccc(F)cc4)C3=O)ccc2C(F)(F)F)CC1 [Compound 84, (5R)-5-(4-fluorophenyl)-2-imino-3-[3-{[4-(4-methyl-1,2,5-oxadiazol-3-yl)piperazin-1-yl]carbonyl}-4-(trifluoromethyl)benzyl]-5-(4,4,4-trifluorobutyl)imidazolidin-4-one]
  IC50: 14.1 nM
